US20130158362A1 (INFACARE PHARMACEUTICAL CORPORATION, priority 2011, published 2013)

System: total serum bilirubin (TSB)
Experiment: Phase 2b trial: total serum bilirubin (TSB), adjusted and unadjusted, change from baseline
Format: in vivo, human
Set-up: total serum bilirubin / total serum bilirubin, Delta (change from baseline) / Change from baseline of total serum bilirubin: unit not given here
Details: for total serum bilirubin / total serum bilirubin, Delta (change from baseline): 48 hours, preliminary data; for change from baseline in adjusted TSB, LS mean (SEM) / change from baseline in adjusted TSB, LS mean difference versus placebo / change from baseline in unadjusted TSB, LS Mean (SEM) / change from baseline in unadjusted TSB, LS Mean Difference versus placebo / change from baseline in adjusted TSB, LS mean (SEM) (primary endpoint): ANCOVA; for change from baseline in adjusted TSB, LS mean difference versus placebo, MMRM / change from baseline in adjusted TSB, LS means (SEM), MMRM: observed case
Method: Three cohorts of subjects were recruited. This clinical study was designed to evaluate safety and efficacy parameters in each cohort.
Scheduled assessments (including TSB) occurred before treatment and at 0.75 and 2 hours (or 1.5 and 3 hours, depending on PK blood sampling assignment); 6, 12, 24, 48, and 72 hours; and 14 and 30 (except TSB) days after treatment or early termination.
The primary efficacy endpoint was the change in adjusted TSB from baseline to 48 hours after treatment. The adjusted TSB was a calculation of the percentage variance of the TSB level from the age specific threshold for PT initiation per the AAP Guidelines, i.e., an indication of the distance below the PT threshold by time.
The Secondary Efficacy Endpoints were the change from baseline in unadjusted TSB at 48 hours after treatment, change from baseline in adjusted and unadjusted TSB at various other time points after treatment, percent change from baseline in unadjusted TSB, proportion of subjects who require PT/exchange transfusion (ET), time to PT/ET, duration of PT and time to hospital discharge.
Intent-to-treat population (ITT): Defined as all subjects who were randomly assigned treatment in the clinical study, had received IMP, and had at least 1 post baseline TSB measurement during the first 48 hours after treatment. Subjects were summarized based on randomized treatment.
Analysis of Efficacy Parameters: The primary efficacy analysis applied the analysis of covariance (ANCOVA) method to determine if there was a significant difference between treatment groups in change in adjusted TSB levels from baseline to 48 hours post baseline after controlling for the effects of gestational age and adjusted baseline TSB levels. If assumptions of ANCOVA appeared to be violated, a Wilcoxon rank-sum test could be performed instead. Time-to-event variables were analyzed using the Kaplan-Meier method, and Kaplan-Meier survival curves were presented.

[1] = 1.5 mg/kg, 6 hrs, unadjusted TSB, ITT Population
[2] = 1.5 mg/kg, 12 hrs, unadjusted TSB, ITT Population
[3] = 1.5 mg/kg, 24 hrs, unadjusted TSB, ITT Population
[4] = 1.5 mg/kg, 48 hrs, unadjusted TSB, ITT Population
[5] = 1.5 mg/kg, baseline, PP Population
[6] = 1.5 mg/kg, baseline, unadjusted TSB, ITT Population
[7] = 3.0 mg/kg IM, 48 h/early termination, ITT, LOCF

Substance: tin IV mesoporphyrin IX dichloride [Stannsoporfin]
- 6 hrs TSB, Mean (SD) [1]: 9.09 (2.175) mg/dL
- 6 hrs TSB, Min [1]: 5.1 mg/dL
- 12 hrs Percent Change from Baseline in TSB, Max [2]: 73.2%
- 12 hrs Percent Change from Baseline in TSB, Mean (SD) [2]: 29.91 (21.467) %
- 12 hrs Percent Change from Baseline in TSB, Min [2]: −12.8%
- 12 hrs TSB, Max [2]: 14.3 mg/dL
- 12 hrs TSB, Mean (SD) [2]: 9.82 (2.599) mg/dL
- 12 hrs TSB, Min [2]: 5.6 mg/dL
- 24 hrs Percent Change from Baseline in TSB, Max [3]: 66.1%
- 24 hrs Percent Change from Baseline in TSB, Mean (SD) [3]: 30.23 (27.126) %
- 24 hrs Percent Change from Baseline in TSB, Median [3]: 38.20%
- 24 hrs Percent Change from Baseline in TSB, Min [3]: −33.3%
- 24 hrs TSB, Max [3]: 12.2 mg/dL
- 24 hrs TSB, Mean (SD) [3]: 9.61 (2.566) mg/dL
- 24 hrs TSB, Min [3]: 5.2 mg/dL
- 48 hrs Percent Change from Baseline in TSB, Max [4]: 82.3%
- 48 hrs Percent Change from Baseline in TSB, Mean (SD) [4]: 32.71 (37.298) %
- 48 hrs Percent Change from Baseline in TSB, Min [4]: −57.7%
- 48 hrs TSB, Max [4]: 13.5 mg/dL
- 48 hrs TSB, Mean (SD) [4]: 9.85 (3.208) mg/dL
- 48 hrs TSB, Min [4]: 3.3 mg/dL
- mean TSB levels (1.5 mg/kg, 14 days after treatment (text, not LOCF table)): 3.06 mg/dL
- Baseline unadjusted TSB, Max [5]: 12.0 mg/dL
- Baseline unadjusted TSB, Mean (SD) [5]: 7.52 (2.030) mg/dL
- Baseline unadjusted TSB, Median [5]: 7.35 mg/dL
- Baseline unadjusted TSB, Min [5]: 4.3 mg/dL
- Baseline TSB, Max [6]: 12.0 mg/dL
- Baseline TSB, Mean (SD) [6]: 7.59 (1.816) mg/dL
- Baseline TSB, Min [6]: 4.3 mg/dL
- total serum bilirubin (3.0 mg/kg IM (N = 13), treated per protocol): 10.53 ± 2.9
- adjusted TSB, Mean (SD) (3.0 mg/kg IM, 6 h, ITT, LOCF): −13.20 (13.118) %
- change from baseline in adjusted TSB, Mean (SD) (3.0 mg/kg IM, 6 h, ITT, LOCF): 2.72 (7.274) %
- change from baseline in adjusted TSB, Median (3.0 mg/kg IM, 6 h, ITT, LOCF): 2.10%
- change from baseline in unadjusted TSB, Mean (SD) (3.0 mg/kg IM, 6 h, ITT, LOCF): 1.53 (0.762) mg/dL
- change from baseline in unadjusted TSB, Median (3.0 mg/kg IM, 6 h, ITT, LOCF): 1.35 mg/dL
- unadjusted TSB, Mean (SD) (3.0 mg/kg IM, 6 h, ITT, LOCF): 9.74 (1.730) mg/dL
- unadjusted TSB, Median (3.0 mg/kg IM, 6 h, ITT, LOCF): 9.90 mg/dL
- change from baseline in adjusted TSB, LS mean (SEM) (3.0 mg/kg IM, 6 h, ITT, LOCF): 2.57 (2.186) %
- change from baseline in adjusted TSB, LS mean difference versus placebo (3.0 mg/kg IM, 6 h, ITT, LOCF): −1.82%
- change from baseline in unadjusted TSB, LS Mean (SEM) (3.0 mg/kg IM, 6 h, ITT, LOCF): 1.39 (0.254) mg/dL
- change from baseline in unadjusted TSB, LS Mean Difference versus placebo (3.0 mg/kg IM, 6 h, ITT, LOCF): -0.20 mg/dL
- change from baseline in adjusted TSB, LS mean difference versus placebo, MMRM (3.0 mg/kg IM, 6 h, ITT): −1.69%
- change from baseline in adjusted TSB, LS means (SEM), MMRM (3.0 mg/kg IM, 6 h, ITT): 2.68 (2.252) %
- adjusted TSB, Mean (SD) (3.0 mg/kg IM, 12 h, ITT, LOCF): −15.06 (13.787) %
- change from baseline in adjusted TSB, Mean (SD) (3.0 mg/kg IM, 12 h, ITT, LOCF): 0.87 (9.503) %
- change from baseline in adjusted TSB, Median (3.0 mg/kg IM, 12 h, ITT, LOCF): 1.55%
- change from baseline in unadjusted TSB, Mean (SD) (3.0 mg/kg IM, 12 h, ITT, LOCF): 2.05 (1.004) mg/dL
- change from baseline in unadjusted TSB, Median (3.0 mg/kg IM, 12 h, ITT, LOCF): 1.90 mg/dL
- unadjusted TSB, Mean (SD) (3.0 mg/kg IM, 12 h, ITT, LOCF): 10.26 (1.748) mg/dL
- unadjusted TSB, Median (3.0 mg/kg IM, 12 h, ITT, LOCF): 10.90 mg/dL
- change from baseline in adjusted TSB, LS mean (SEM) (3.0 mg/kg IM, 12 h, ITT, LOCF): 2.64 (3.209) %
- change from baseline in adjusted TSB, LS mean difference versus placebo (3.0 mg/kg IM, 12 h, ITT, LOCF): −4.50%
- change from baseline in unadjusted TSB, LS Mean (SEM) (3.0 mg/kg IM, 12 h, ITT, LOCF): 2.06 (0.393) mg/dL
- change from baseline in unadjusted TSB, LS Mean Difference versus placebo (3.0 mg/kg IM, 12 h, ITT, LOCF): -0.54 mg/dL
- change from baseline in adjusted TSB, LS mean difference versus placebo, MMRM (3.0 mg/kg IM, 12 h, ITT): −5.14%
- change from baseline in adjusted TSB, LS means (SEM), MMRM (3.0 mg/kg IM, 12 h, ITT): 0.83 (2.821) %
- adjusted TSB, Mean (SD) (3.0 mg/kg IM, 24 h, ITT, LOCF): −24.46 (11.302) %
- change from baseline in adjusted TSB, Mean (SD) (3.0 mg/kg IM, 24 h, ITT, LOCF): −8.53 (16.045) %
- change from baseline in adjusted TSB, Median (3.0 mg/kg IM, 24 h, ITT, LOCF): −3.10%
- change from baseline in unadjusted TSB, Mean (SD) (3.0 mg/kg IM, 24 h, ITT, LOCF): 1.85 (1.596) mg/dL
- change from baseline in unadjusted TSB, Median (3.0 mg/kg IM, 24 h, ITT, LOCF): 2.08 mg/dL
- unadjusted TSB, Mean (SD) (3.0 mg/kg IM, 24 h, ITT, LOCF): 10.06 (1.757) mg/dL
- unadjusted TSB, Median (3.0 mg/kg IM, 24 h, ITT, LOCF): 10.45 mg/dL
- change from baseline in adjusted TSB, LS mean (SEM) (3.0 mg/kg IM, 24 h, ITT, LOCF): −9.21 (4.598) %
- change from baseline in adjusted TSB, LS mean difference versus placebo (3.0 mg/kg IM, 24 h, ITT, LOCF): −9.12%
- change from baseline in unadjusted TSB, LS Mean (SEM) (3.0 mg/kg IM, 24 h, ITT, LOCF): 1.67 (0.578) mg/dL
- change from baseline in unadjusted TSB, LS Mean Difference versus placebo (3.0 mg/kg IM, 24 h, ITT, LOCF): -1.08 mg/dL
- change from baseline in adjusted TSB, LS mean difference versus placebo, MMRM (3.0 mg/kg IM, 24 h, ITT): −7.01%
- change from baseline in adjusted TSB, LS means (SEM), MMRM (3.0 mg/kg IM, 24 h, ITT): −8.57 (3.894) %
- adjusted TSB, Mean (SD) [7]: −31.80 (18.214) %
- adjusted TSB, Median [7]: −24.75%
- change from baseline in adjusted TSB, Mean (SD) (3.0 mg/kg IM, 48 h, ITT, LOCF): −15.88 (21.406) %
- change from baseline in adjusted TSB, Median (3.0 mg/kg IM, 48 h, ITT, LOCF): −9.05%
- change from baseline in unadjusted TSB, Mean (SD) (3.0 mg/kg IM, 48 h, ITT, LOCF): 2.47 (2.703) mg/dL
- change from baseline in unadjusted TSB, Median (3.0 mg/kg IM, 48 h, ITT, LOCF): 2.94 mg/dL
- unadjusted TSB, Mean (SD) (3.0 mg/kg IM, 48 h, ITT, LOCF): 10.68 (2.956) mg/dL
- unadjusted TSB, Median (3.0 mg/kg IM, 48 h, ITT, LOCF): 11.65 mg/dL
- change from baseline in adjusted TSB, LS mean (SEM) (primary endpoint) (3.0 mg/kg IM, 48 h, ITT, LOCF): −11.60 (5.612) %
- change from baseline in adjusted TSB, LS mean difference versus placebo (3.0 mg/kg IM, 48 h, ITT, LOCF): −10.02%
- change from baseline in unadjusted TSB, LS Mean (SEM) (3.0 mg/kg IM, 48 h, ITT, LOCF): 2.90 (0.886) mg/dL
- change from baseline in unadjusted TSB, LS Mean Difference versus placebo (3.0 mg/kg IM, 48 h, ITT, LOCF): -1.34 mg/dL
- change from baseline in adjusted TSB, LS mean (SEM) (primary endpoint) (3.0 mg/kg IM, 48 h, ITT, LOCF, listed as stannsoporfin): 11.6%
- change from baseline in adjusted TSB, LS mean difference versus placebo, MMRM (3.0 mg/kg IM, 48 h, ITT): −9.24%
- change from baseline in adjusted TSB, LS means (SEM), MMRM (3.0 mg/kg IM, 48 h, ITT): −15.92 (4.919) %
- total serum bilirubin (3.0 mg/kg IM, intent to treat): 10.68 ± 3.0
- total serum bilirubin, Delta (change from baseline) (3.0 mg/kg IM, intent to treat): 2.47 ± 2.7
- total serum bilirubin, Delta (change from baseline) (3.0 mg/kg IM, treated per protocol): 2.20 ± 2.9
- adjusted TSB, Mean (SD) (3.0 mg/kg IM, 72 h/early termination, ITT, LOCF): −42.64 (21.640) %
- change from baseline in adjusted TSB, Mean (SD) (3.0 mg/kg IM, 72 h, ITT, LOCF): −26.72 (24.245) %
- change from baseline in adjusted TSB, Median (3.0 mg/kg IM, 72 h, ITT, LOCF): −17.30%
